Each structure is given as a SMILES string.

For this experiment, the system named is KB. Kind of experiment: Cytotoxicity against human KB cells. It is filed as functional, cell-based.

In the case of `C#CCCC[C@@H](O)[C@@H](C)[C@@H]1C/C=C(\C)C(=O)O[C@H](CC(C)C)C(=O)N[C@@H](C)C(=O)N(C)[C@H](Cc2ccccc2)C(=O)N(C)CC(=O)N[C@H]([C@H](C)CC)C(=O)N(C)[C@@H](C)C(=O)O1` [PALAU'AMIDE], the IC50 was found to be 13 nM. This lies in the double-digit nanomolar range.

As a reminder, the IC50 is the concentration that inhibits the measured activity by half. Low readings indicate greater potency in that assay, high ones weaker potency in that assay.

The values above are taken from ChEMBL document CHEMBL1147259, “The structure of Palau'amide, a potent cytotoxin from a species of the marine cyanobacterium Lyngbya” (J Nat Prod, 2003).
